Here are results for 3 compounds from patent publication US4293700A, “2,6-Dimethyl-1,4-dihydropyridine-3,5-dicarboxylic acid esters and method for preparing same” (priority 1978, dated 1981).

The subject of one data set is metastases. The following applies: in words; cited from earlier work.
The conditions of data set [1]: cited from earlier work.
The next data set deals with Walker carcinosarcoma. The experiment in a line: Antimetastatic activity: life duration of rats with Walker carcinosarcoma. As to conditions: for Life duration, % of the control: Walker carcinosarcoma (rats), 10 days; for increase of the life time: rats, after the removal of Walker carcinoma. The data set is classed as in vivo. On the procedure: (§1) Antimetastatic properties of esters of 2,6-dimethyl-1,4-dihydropyridine-3,5-dicarboxylic acid have been tested on Walker carcinosarcoma, sarcoma 536 and Lewis pneumocarbinoma using mice and rats as test animals. The preparations were administered for 10 days. Two procedures of the administration of these compounds prior to the removal of the primary tumor and introduction of the compound after the removal of the primary tumor. The efficiency of antimetastatic activity of esters of 2,6-dimethyl-1,4-dihydropyridine-3,5-dicarboxylic acid is assessed by the increase of the life duration of the test animals expressed as percentage of the life duration of the animals administered no preparation and serving as the control.
Thus, disodium salt of carboxylatomethyl ester of 2,6-dimethyl-1,4-dihydropyridine-3,5-dicarboxylic acid administered in doses of 50 and 100 mg/kg during the period after the removal of Walker carcinoma increases the life time of the rest rats by 120 and 93% respectively. […] The effect of the compounds is most pronounced in tests with Walker carbinosarcoma on rats; a high efficiency is also noticed for sarcoma 536 with rats; less pronounced is the effect on Lewis lungs carcinoma with mice. The use of esters of 2,6-dimethyl-1,4-dihydropyridine-3,5-dicarboxylic acid provides no negative effect on physiological functions and behaviour of the test animals.

Another data set relates to sarcoma 536. The experiment in a line: Antimetastatic activity: life duration of rats with sarcoma 536. As to conditions: Sarcoma 536 (rats), 10 days. The data set is classed as in vivo. The protocol:
as §1

A further data set deals with Lewis lungs carcinoma. The experiment in a line: Antimetastatic activity: life duration of mice with Lewis lungs carcinoma. As to conditions: after the removal of the primary tumor, 10 days. The data set is classed as in vivo. On the procedure:
as §1

A short description of the next data set: Solubility. The data set is classed as physicochemical.
The mark [2] stands for this setting: after the removal of the primary tumor, daily dose 50 mg/kg.
The mark [3] stands for this setting: after the removal of the primary tumor, daily dose 150 mg/kg.
Setting [4] is: before the removal of the primary tumor, daily dose 100 mg/kg.

Structures can show the parent of a compound that is named as a salt.

`CC(CN1CC(=O)NC(=O)C1)N1CC(=O)NC(=O)C1` (racemic) [JCFR-159, (±) 1,2-bis(3,5-dioxopiperazin-1-yl)propane]: the antimetastatic activity entry in the data set on metastases is “certain antimetastic activity”. In addition, in data set [1] (in vivo), the side effects entry was “causes leucopenia, thrombocytopenia and dyspeptic phenomena”. Besides, the toxicity result in data set [1] (in words) is “somewhat toxic”. In addition, the LD50 in data set [1] (species and route not given) is recorded as 1,000 mg/kg.

With `CC1=C(C(=O)OCC(=O)O)CC(C(=O)OCC(=O)O)=C(C)N1` [disodium carboxylate-methyl ester, disodium salt of carboxylate-methyl ester of 2,6-dimethyl-1,4-dihydropyridine-3,5-dicarboxylic acid], the “Life duration, % of the control” value is listed as 220% in the data set with Walker carcinosarcoma (setting [2]); 193% in the data set with Walker carcinosarcoma (after the removal of the primary tumor, daily dose 100 mg/kg); 112% in the data set with Walker carcinosarcoma (setting [3]); 130% with Walker carcinosarcoma (before the removal of the primary tumor, daily dose 50 mg/kg); 150% in the data set on Walker carcinosarcoma (setting [4]); 129% with sarcoma 536 (setting [2]). Also, the “Life duration, % of the control” value amounted to 132% with sarcoma 536 (setting [3]); 152% in the data set with sarcoma 536 (setting [4]); 138% with sarcoma 536 (before the removal of the primary tumor, daily dose 150 mg/kg); 120% in the data set on Lewis lungs carcinoma (daily dose 100 mg/kg); 113% with Lewis lungs carcinoma (daily dose 150 mg/kg). Further, the “increase of the life time” value with Walker carcinosarcoma (50 mg/kg) came to 120%; in the data set with Walker carcinosarcoma (100 mg/kg) it was 93%. For the same compound, the solubility in alcohol result in “Solubility” was “sparingly soluble in alcohol”. Further, the solubility in water result in the data set “Solubility” was “highly soluble in water”.

On to `CC1=C(C(=O)OC2CC(C)CCC2C(C)C)CC(C(=O)OC2CC(C)CCC2C(C)C)=C(C)N1` (centres unmarked) [menthyl ester, Menthyl ester of 2,6-dimethyl-1,4-dihydropyridine-3,5-dicarboxylic acid], for which the “Life duration, % of the control” value in the data set with Walker carcinosarcoma (prior to the removal of the primary tumor, daily dose 150 mg/kg) is reported as 116%. In addition, in the data set with Walker carcinosarcoma (prior to the removal of the primary tumor, daily dose 300 mg/kg), the “Life duration, % of the control” value is listed as 165%. Besides, the solubility in acetone entry in the data set “Solubility” (acetone) is “highly-soluble”. Further, in “Solubility”, the solubility in alcohol entry is on record as “highly-soluble” and the solubility in water entry is given as “insoluble in water”. For the same compound, the solubility in benzene entry in the data set “Solubility” (benzene) was “highly-soluble”. Also, in “Solubility” (chloroform), the solubility in chloroform result is “highly-soluble”.
